According to patent US7514404B2, “PNA-neamine conjugates and methods for producing and using the same” (University of Medicine & Dentistry of New Jersey, priority 2004, dated 2009):

Tested on: pseudotyped HIV-1 virions carrying the firefly luciferase reporter gene
Test: Luciferase activity in CEM cells infected with pseudotyped HIV-1 virions
Assay type: cell-based
Settings: concentrations greater than 5 μM in the culture medium
Description: The ability of a TAR-specific PNA-neamine conjugate to block HIV-1 production when supplemented in the culture medium was also examined. Lymphocyte CEM cells were infected with pseudotyped HIV-1 virions carrying the firefly luciferase reporter gene. The infected cells were incubated with varying concentration of PNATAR-neamine conjugate 60 or naked PNATAR during 48 hours at 37° C. and lysed to measure firefly luciferase activity. Anti-TAR PNA-transportan conjugate (PNA-membrane-permeating peptide conjugate) known to inhibit HIV-1 replication (Kaushik, et al. (2002) supra) was used as a positive control. […] Supplementation of naked PNA of SEQ ID NO:1 in the culture medium had no influence on luciferase gene expression.
Isolation of HIV-1 Virions. The pseudotyped HIV-1 virions were isolated from the culture supernatant of 293T cells transfected with pHIV-1JR-CSF-Lucenv (-) and pVSV-G clones. The culture supernatant (500 mL) was filtered through 0.45 μm pore size membrane and centrifuged at 70,000 g for 45 minutes. […] HIV-1 virions were quantified by determining the RNA copy number in the sample using NUCLISENS® HIV-1-QT Amplication Kit (Organon Teknika, Durham, N.C.). […] The virion number estimated from the RNA copy number was in agreement with the number determined by p24 quantification (1 pg p24 per 12500 virions). […]

## NC[C@H]1O[C@H](O[C@H]2[C@H](O)[C@@H](O)[C@H](N)C[C@@H]2N)[C@H](N)[C@@H](O)[C@@H]1O [neamine core, neamine]
  inhibition of HIV-1 replication: did not inhibit
